The source of these data is patent publication US20230140132A1, “ARGINASE INHIBITORS AND METHODS OF USE” (MERCK SHARP & DOHME LLC, priority 2020, published 2023).

One experiment has as its target T1, Arginase (Homo sapiens, UniProt P05089).
T1 sequence (P05089 1-322): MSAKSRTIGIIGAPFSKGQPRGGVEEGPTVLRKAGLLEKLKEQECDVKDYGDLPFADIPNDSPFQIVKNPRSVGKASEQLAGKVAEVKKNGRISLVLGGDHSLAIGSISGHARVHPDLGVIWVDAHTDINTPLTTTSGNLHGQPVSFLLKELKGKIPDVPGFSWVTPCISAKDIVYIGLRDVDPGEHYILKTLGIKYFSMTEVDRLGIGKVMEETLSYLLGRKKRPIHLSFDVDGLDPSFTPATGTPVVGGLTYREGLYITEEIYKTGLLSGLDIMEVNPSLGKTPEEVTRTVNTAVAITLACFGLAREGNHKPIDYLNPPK
The experiment can be described thus: Arginase Thioornithine Generating Assay (TOGA). Format: biochemical. As to conditions: recombinant arginase 1.88 nM, thioarginine substrate, fluorescence readout. On the procedure: Compounds were serially diluted in ten 3-fold steps in DMSO starting from 10 mM DMSO stocks. Compound dilutions or DMSO alone were then dispensed from the dilution plate into a Greiner black 384-well assay plate (catalog #781086) using an Echo 555 acoustic liquid handler (Labcyte).
Arginase protein was recombinantly expressed in Escherichia coli. Purified protein was then diluted in assay buffer (50 mM Tris pH 7.5, 50 mM NaCl, 1 mM manganese chloride, 0.05% bovine serum albumin to obtain a final Arginase concentration of 1.88 nM. Arginase solution (20 μL) or buffer alone (20 μL) were dispensed to wells of the assay plate using a BioRAPTR liquid dispenser (Beckman Coulter). Assay plates containing compound and arginase enzyme were incubated at room temperature for 30 minutes. Afterwards, 5 μL of 2.5 mM thioarginine (Cayman Chemicals) in assay buffer were added to each well of the assay plate using a BioRAPTR liquid dispenser. Plates were incubated at room temperature for 60 minutes and reactions were quenched by addition of 15 μL of 200 uM 7-Diethylamine-3-(4-maleimidophenyl)-4-methylcoumarin (Sigma Chemical) in 70% ethanol. Plates were briefly shaken to mix and the fluorescence was measured in an Spectramax plate reader (Molecular Devices) with a 410 nm excitation wavelength and an 490 nm emission wavelength.
Potencies were calculated by […] to the four parameter logistic IC50 equation.

Experiment [1] relates to opossum internal anal sphincter muscle. Conditions: Baggio et al. 1999; cited from earlier work.
Experiment [2] deals with airway hyperresponsiveness. As to conditions: guinea pigs, nebulizer treatment, allergic asthma model; cited from earlier work.
The subject of experiment [3] is rabbit and human penile corpus cavernosum. Conditions: Cox et al. 1999; cited from earlier work.
Another experiment has as its system erectile response. As to conditions: live male rabbits; Cama et al. 2003; cited from earlier work.
Experiment [4] deals with corpus cavernosum of the diabetic person. Conditions: ex vivo, Bivalacqua et al. 2001; cited from earlier work.
Experiment [5] has as its system engorgement response in the genitalia. Conditions: live female rabbits; Cama et al. 2003; cited from earlier work.
For experiment [6], the system named is experimental autoimmune encephalomyelitis. Conditions: Xu et al. 2003; cited from earlier work.

Broadly, the IC50 is the point on the concentration scale where inhibition reaches its midpoint. On to `C[C@]1(CCCB(O)O)[C@@H](C(=O)O)N[C@H]2C[C@H]21` [Example 24, (1S,3S,4R,5S)-4-(3-boronopropyl)-4-methyl-2-azabicyclo[3.1.0]hexane-3-carboxylic Acid], for which, at Arginase, the IC50 turned out to be 5740 nM.
The same measure, in the same setting: the result for `O=C(O)[C@H]1NC[C@@H]2NCC[C@@]21CCCB(O)O` [Example 1, (3aS,4S,6aR)-3a-(3-boronopropyl)octahydropyrrolo[3,4-b]pyrrole-4-carboxylic Acid] reads 1.61 nM; that for `C[C@]1(CCCB(O)O)[C@@H](C(=O)O)N[C@@H]2CC[C@@H]21` [Example 17, (1R,3S,4R,5R)-4-(3-boronopropyl)-4-methyl-2-azabicyclo[3.2.0]heptane-3-carboxylic Acid], 66.5 nM.
Same read-out and setting: the result for `O=C(O)[C@H]1NC[C@@H]2NC[C@@]21CCCB(O)O` [Example 34, (1S,2S,5R)-1-(3-boronopropyl)-3,6-diazabicyclo[3.2.0]heptane-2-carboxylic Acid] reads 104 nM.
Consider `N[C@@H](CCCCB(O)O)C(=O)O` [ABH, (S)-2-amino-6-boronohexanoic acid], for which, in experiment [1], the “relaxation of internal anal sphincter muscle” value is reported as “relax this muscle”. Also, in experiment [2], the airway hyperresponsiveness result is reported as “prevents airway hyperresponsiveness”. Further, the “nitric oxide-dependent relaxation of corpus cavernosum tissue” value in experiment [3] is recorded as “enhances the nitric oxide-dependent relaxation of this tissue”. In the experiment on erectile response, the erectile response entry was “enhances the erectile response”. In addition, in experiment [4], the nitric oxide biosynthesis entry is listed as “restores nitric oxide biosynthesis”. In addition, the “engorgement response in the genitalia” value in experiment [5] is listed as “enhances the engorgement response”. For the same compound, the disease score entry in experiment [6] is given as “improves the disease score of animals”.
